Patent publication US7879881B2, “Piperidinyl compounds that selectively bind integrins” (Janssen Pharmaceutica NV, priority 2002, dated 2011)
Like-named read-outs stand apart in the source and are kept apart here.

Assays:
Human αvβ3 = molecular target: T1, Human αvβ3 (Homo sapiens, UniProt P05106+P06756); assay: In Vitro Solid Phase Purified αvβ3 Binding Assay (vitronectin/αvβ3); details: vitronectin binding to immobilized purified human αvβ3, mean ± spread
T1 construct: purchased Chemicon International Inc., Temecula, Calif
Procedure, shortened: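 Purified human αvβ3 immobilized at 1 μg/ml in Tris buffer with Ca, Mg and Mn; compounds competed with 2 nM vitronectin for 3 h at 37 °C. Bound vitronectin detected by anti-vitronectin antibody and peroxidase ABC, absorbance at 490 nm.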

human purified αVβ5 = molecular target: T2, human purified αVβ5 (Homo sapiens, UniProt P06756+P18084); assay: In Vitro Solid Phase Purified αcβ5 Binding Assay (vitronectin/αVβ5); details: vitronectin binding to immobilized purified human αVβ5, mean ± spread
T2 construct: purchased Chemicon International, Inc
Procedure, shortened: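 Purified human integrin immobilized at 1 μg/ml in Tris buffer with Ca2+, Mg2+, Mn2+ and NaCl, then BSA-blocked. Compounds added just before 2 nM vitronectin, 3 h at 37 °C. Bound vitronectin detected by anti-vitronectin antibody with biotin/peroxidase (ABC) detection at 490 nm.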

GP IIb/IIIa = GP IIb/IIIa (Homo sapiens, UniProt P05106+P08514); assay: In Vitro Solid Phase Purified GP IIb/IIIa Binding Assay (biotinylated fibrinogen); details: biotinylated fibrinogen binding to immobilized purified GP IIb/IIIa, mean ± spread
Procedure, shortened: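 Purified GP IIb/IIIa coated overnight at 4° C, blocked with 5% BSA, then incubated with test compound and biotinylated fibrinogen for 2-4 h at RT in modified Tyrodes buffer. Bound fibrinogen detected with avidin-biotin HRP complex and o-phenylenediamine/H2O2 (citrate/phosphate pH 5.3), stopped with 2 N H2SO4.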

Chain of GP IIb/IIIa (P08514 32-887 limits assumed): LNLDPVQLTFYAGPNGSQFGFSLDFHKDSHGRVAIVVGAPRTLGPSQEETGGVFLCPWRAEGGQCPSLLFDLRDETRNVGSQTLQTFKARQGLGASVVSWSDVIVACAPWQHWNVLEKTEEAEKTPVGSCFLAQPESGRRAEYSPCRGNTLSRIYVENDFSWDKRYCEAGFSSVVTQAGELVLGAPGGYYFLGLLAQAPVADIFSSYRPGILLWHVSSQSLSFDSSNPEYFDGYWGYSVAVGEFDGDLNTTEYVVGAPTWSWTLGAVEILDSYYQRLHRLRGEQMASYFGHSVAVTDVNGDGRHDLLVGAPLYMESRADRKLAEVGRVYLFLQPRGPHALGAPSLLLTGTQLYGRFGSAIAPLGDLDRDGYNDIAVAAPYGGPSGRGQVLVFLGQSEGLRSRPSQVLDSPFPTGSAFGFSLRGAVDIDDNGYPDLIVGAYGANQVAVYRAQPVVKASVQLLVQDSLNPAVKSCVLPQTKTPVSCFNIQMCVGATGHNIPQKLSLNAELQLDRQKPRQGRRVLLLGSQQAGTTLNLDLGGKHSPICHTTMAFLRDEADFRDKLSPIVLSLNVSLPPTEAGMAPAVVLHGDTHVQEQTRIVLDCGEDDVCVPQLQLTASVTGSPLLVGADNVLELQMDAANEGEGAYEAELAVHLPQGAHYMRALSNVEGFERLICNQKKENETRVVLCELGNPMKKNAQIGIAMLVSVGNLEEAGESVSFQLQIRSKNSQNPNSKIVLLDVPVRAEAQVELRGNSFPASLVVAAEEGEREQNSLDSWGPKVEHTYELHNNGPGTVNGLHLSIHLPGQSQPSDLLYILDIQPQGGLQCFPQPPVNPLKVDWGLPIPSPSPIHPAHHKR
Chain of GP IIb/IIIa (P08514 891-1039 partner limits assumed): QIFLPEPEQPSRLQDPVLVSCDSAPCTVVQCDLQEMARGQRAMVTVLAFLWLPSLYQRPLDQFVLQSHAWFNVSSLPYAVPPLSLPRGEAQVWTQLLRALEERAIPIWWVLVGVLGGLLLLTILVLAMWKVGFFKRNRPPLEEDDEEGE
Chain of GP IIb/IIIa (P05106 27-788): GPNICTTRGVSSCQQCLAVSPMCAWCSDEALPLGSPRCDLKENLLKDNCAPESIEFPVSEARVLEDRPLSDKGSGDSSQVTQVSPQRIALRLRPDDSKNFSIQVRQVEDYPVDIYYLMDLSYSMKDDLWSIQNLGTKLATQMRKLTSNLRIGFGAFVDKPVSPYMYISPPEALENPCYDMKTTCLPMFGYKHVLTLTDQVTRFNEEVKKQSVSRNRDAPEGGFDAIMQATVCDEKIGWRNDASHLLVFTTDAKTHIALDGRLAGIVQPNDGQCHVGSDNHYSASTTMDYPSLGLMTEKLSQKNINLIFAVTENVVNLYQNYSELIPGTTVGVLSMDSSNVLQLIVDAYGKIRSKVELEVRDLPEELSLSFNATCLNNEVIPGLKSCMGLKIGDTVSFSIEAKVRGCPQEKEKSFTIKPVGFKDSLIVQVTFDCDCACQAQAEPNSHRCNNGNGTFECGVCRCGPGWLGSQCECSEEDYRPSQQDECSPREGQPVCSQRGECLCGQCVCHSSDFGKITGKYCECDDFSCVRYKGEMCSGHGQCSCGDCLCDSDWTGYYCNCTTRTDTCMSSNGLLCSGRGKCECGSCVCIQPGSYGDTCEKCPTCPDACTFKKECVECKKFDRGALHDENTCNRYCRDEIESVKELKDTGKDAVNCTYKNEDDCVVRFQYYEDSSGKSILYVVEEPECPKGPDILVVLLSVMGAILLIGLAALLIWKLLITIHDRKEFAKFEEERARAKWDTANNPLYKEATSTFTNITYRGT
T1 sequence (P06756 31-889 limits assumed): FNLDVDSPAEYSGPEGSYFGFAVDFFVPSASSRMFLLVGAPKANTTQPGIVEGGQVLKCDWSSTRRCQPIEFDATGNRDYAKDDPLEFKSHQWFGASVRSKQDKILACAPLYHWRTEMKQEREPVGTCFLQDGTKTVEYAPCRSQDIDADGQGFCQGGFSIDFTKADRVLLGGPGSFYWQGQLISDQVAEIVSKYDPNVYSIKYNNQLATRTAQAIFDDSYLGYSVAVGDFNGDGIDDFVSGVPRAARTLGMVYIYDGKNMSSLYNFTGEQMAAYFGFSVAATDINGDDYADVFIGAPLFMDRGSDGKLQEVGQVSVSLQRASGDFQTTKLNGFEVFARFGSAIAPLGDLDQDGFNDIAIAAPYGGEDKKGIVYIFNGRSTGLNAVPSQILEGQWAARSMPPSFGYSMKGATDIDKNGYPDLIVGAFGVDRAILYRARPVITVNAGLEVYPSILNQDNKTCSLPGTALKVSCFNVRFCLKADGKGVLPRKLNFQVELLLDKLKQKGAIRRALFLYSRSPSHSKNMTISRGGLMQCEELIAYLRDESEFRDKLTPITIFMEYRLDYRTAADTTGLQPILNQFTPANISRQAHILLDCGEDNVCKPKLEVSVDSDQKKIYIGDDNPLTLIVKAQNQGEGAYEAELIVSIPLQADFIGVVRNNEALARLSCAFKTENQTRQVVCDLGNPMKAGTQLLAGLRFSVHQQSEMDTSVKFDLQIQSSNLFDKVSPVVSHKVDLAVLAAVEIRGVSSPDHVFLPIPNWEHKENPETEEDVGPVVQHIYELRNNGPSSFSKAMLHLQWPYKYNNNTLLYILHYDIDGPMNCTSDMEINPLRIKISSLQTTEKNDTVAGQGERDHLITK
T1 sequence (P06756 891-1048 partner limits assumed): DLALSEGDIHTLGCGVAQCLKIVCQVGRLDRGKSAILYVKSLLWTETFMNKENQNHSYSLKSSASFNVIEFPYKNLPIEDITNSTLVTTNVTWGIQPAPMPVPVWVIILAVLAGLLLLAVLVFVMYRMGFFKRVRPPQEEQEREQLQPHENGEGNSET
T1 sequence (P05106 27-788): as the sequence (P05106 27-788) above
T2 sequence (P06756 31-889 limits assumed): as the sequence (P06756 31-889 limits assumed) above
T2 sequence (P06756 891-1048 partner limits assumed): as the sequence (P06756 891-1048 partner limits assumed) above
T2 sequence (P18084 24-799): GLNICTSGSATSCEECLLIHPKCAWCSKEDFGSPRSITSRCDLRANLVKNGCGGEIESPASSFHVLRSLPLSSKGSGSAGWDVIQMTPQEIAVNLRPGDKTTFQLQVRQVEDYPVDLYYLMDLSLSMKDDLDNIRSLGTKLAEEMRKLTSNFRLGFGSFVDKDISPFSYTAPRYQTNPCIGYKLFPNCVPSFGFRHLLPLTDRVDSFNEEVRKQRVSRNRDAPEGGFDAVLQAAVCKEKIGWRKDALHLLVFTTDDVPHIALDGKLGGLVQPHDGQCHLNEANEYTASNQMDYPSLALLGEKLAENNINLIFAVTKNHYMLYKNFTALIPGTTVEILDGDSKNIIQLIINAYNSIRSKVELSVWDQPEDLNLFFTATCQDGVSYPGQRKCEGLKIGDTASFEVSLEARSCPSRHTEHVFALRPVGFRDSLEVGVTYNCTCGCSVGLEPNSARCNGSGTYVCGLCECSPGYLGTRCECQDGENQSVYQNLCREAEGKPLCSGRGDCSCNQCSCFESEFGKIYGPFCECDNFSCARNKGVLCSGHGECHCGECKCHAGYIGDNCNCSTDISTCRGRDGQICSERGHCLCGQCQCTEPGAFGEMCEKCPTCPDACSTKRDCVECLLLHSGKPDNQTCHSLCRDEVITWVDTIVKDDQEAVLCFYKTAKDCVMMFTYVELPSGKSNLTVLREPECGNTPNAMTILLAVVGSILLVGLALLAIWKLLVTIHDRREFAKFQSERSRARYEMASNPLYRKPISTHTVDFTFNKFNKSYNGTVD

IC50 (Human αvβ3; read-out: αvβ3IC50) | IC50 (human purified αVβ5; read-out: αvβ5 IC50) | IC50 (GP IIb/IIIa; read-out: αIIbβ3 IC50) | SMILES | IC50 (Human αvβ3; αvβ3IC50 (uM)) | IC50 (human purified αVβ5; αvβ5 IC50 (uM)) | IC50 (GP IIb/IIIa; αIIbβ3 IC50 (uM))
0.0004 ± 0.0003 µM | 0.0323 ± 0.0082 µM | 1.44 ± 0.39 µM | O=C(O)CC(c1cnc2c(c1)CCCC2)C1CCN(C(=O)CCCc2ccc3c(n2)NCCC3)CC1 (single isomer, unassigned) [Cpd 58a, 5,6,7,8-Tetrahydro-β-[1-[1-oxo-4-(5,6,7,8-tetrahydro-1,8-naphthyridin-2-yl)butyl]-4-piperidinyl]-3-quinolinepropanoic acid] | – | – | –
– | – | – | COc1ccc(C(CC(=O)O)CC2CCN(C(=O)CCc3ccc4c(n3)NCCC4)CC2)cn1 (stereo not drawn) [Cpd 28, 6-methoxy-β-[[1-[1-oxo-3-(5,6,7,8-tetrahydro-1,8-naphthyridin-2-yl)propyl]-4-piperidinyl]methyl]-3-pyridinepropanoic acid] | 0.0007 ± 0.0002 µM | 0.0027 ± 0.0008 µM | 6.1 ± 2.44 µM
0.0018 ± 0.0003 µM | 0.0397 ± 0.0121 µM | 5.38 µM | COc1cc(C(CC(=O)O)CC2CCN(C(=O)CCc3ccc4c(n3)NCCC4)CC2)ccc1O (racemic) [Cpd 76, 3-(4-Hydroxy-3-methoxy-phenyl)-4-[1-(3-5,6,7,8-tetrahydro-[1,8]naphthyridin-2-yl-propionyl)-piperidin-4-yl]-butyric acid] | – | – | –
0.048 µM | 0.81 µM | 1.62 ± 0.56 µM | O=C(O)CC(CC1CCN(C(=O)c2cccc(NC3=NCC(O)CN3)c2)CC1)c1ccc2c(c1)OCO2 (stereo not drawn) [Cpd 27, β-(1,3-benzodioxol-5-yl)-1-[3-[(1,4,5,6-tetrahydro-5-hydroxy-2-pyrimidinyl)amino]benzoyl]-4-piperidinebutanoic acid] | – | – | –
0.484 µM | 2.11 µM | > 50 µM | O=C(O)CC(CC1CCN(C(=O)CCCc2ccc3c(n2)NCCC3)CC1)c1cc(F)cc(F)c1 (stereo not drawn) [Cpd 38, β-(3,5-difluorophenyl)-1-[1-oxo-4-(5,6,7,8-tetrahydro-1,8-naphthyridin-2-yl)butyl]-4-piperidinebutanoic acid] | – | – | –
0.0013 ± 0.0004 µM | 0.0226 ± 0.0052 µM | > 50 µM | O=C(O)CC(CC1CCN(C(=O)CCc2ccc3c(n2)NCCC3)CC1)c1ccc(F)cc1 (stereo not drawn) [Cpd 33, β-(4-fluorophenyl)-1-[1-oxo-3-(5,6,7,8-tetrahydro-1,8-naphthyridin-2-yl)propyl]-4-piperidinebutanoic acid] | – | – | –
– | – | – | O=C(O)CC(CC1CCN(C(=O)CCc2ccc3c(n2)NCCC3)CC1)c1cnc2c(c1)CCCC2 (racemic) [Cpd 57, 5,6,7,8-tetrahydro-β-[[1-[1-oxo-3-(5,6,7,8-tetrahydro-1,8-naphthyridin-2-yl)propyl]-4-piperidinyl]methyl]-3-quinolinepropanoic acid] | 0.0016 ± 0.0007 µM | 0.0109 ± 0.0042 µM | 3.04 ± 0.55 µM
> 0.5 µM | > 1 µM | > 50 µM | CC(C)(C)OC(=O)CCCC1CCN(C(=O)CCc2ccc3c(n2)NCCC3)CC1 [Cpd 70, 4-[1-(3-5,6,7,8-Tetrahydro-[1,8]naphthyridin-2-yl-propionyl)-piperidin-4-yl]-butyric acid tert-butyl ester] | – | – | –
0.413 µM | > 1 µM | 35.6 µM | CCOC(=O)CCCC1CCN(C(=O)CCc2ccc3c(n2)NCCC3)CC1 [Cpd 68, 4-[1-(3-5,6,7,8-Tetrahydro-[1,8]naphthyridin-2-yl-propionyl)-piperidin-4-yl]-butyric acid ethyl ester] | – | – | –
> 0.5 µM | > 1 µM | > 50 µM | COC(=O)CCCC1CCN(C(=O)CCc2ccc3c(n2)NCCC3)CC1 [Cpd 73, 4-[1-(3-5,6,7,8-Tetrahydro-[1,8]naphthyridin-2-yl-propionyl)-piperidin-4-yl]-butyric acid methyl ester] | – | – | –
> 0.5 µM | > 1 µM | > 50 µM | CC(C)OC(=O)CCCC1CCN(C(=O)CCc2ccc3c(n2)NCCC3)CC1 [Cpd 69, 4-[1-(3-5,6,7,8-Tetrahydro-[1,8]naphthyridin-2-yl-propionyl)-piperidin-4-yl]-butyric acid isopropyl ester] | – | – | –
0.0018 ± 0.0005 µM | 0.0895 ± 0.0255 µM | 0.16 ± 0.02 µM | O=C(O)CC(CCC1CCN(C(=O)c2cccc(NC3=NCC(O)CN3)c2)CC1)c1cnc2ccccc2c1 (stereo not drawn) [Cpd 49, β-[2-[1-[3-[(1,4,5,6-tetrahydro-5-hydroxy-2-pyrimidinyl)amino]benzoyl]-4-piperidinyl]ethyl]-3-quinolinepropanoic acid] | – | – | –
0.0035 ± 0.0006 µM | 0.0659 ± 0.0171 µM | 13.6 ± 1.33 µM | O=C(O)CC(CC1CCN(C(=O)CCc2ccc3c(n2)NCCC3)CC1)c1ccc2c(c1)CCO2 (stereo not drawn) [Cpd 46, β-(2,3-dihydro-5-benzofuranyl)-1-[1-oxo-3-(5,6,7,8-tetrahydro-1,8-naphthyridin-2-yl)propyl]-4-piperidinebutanoic acid] | – | – | –
0.405 µM | 0.28 µM | 1.97 µM | COc1ccc(C(CCC2CCN(C(=O)CCc3ccc4c(n3)NCCC4)CC2)CC(=O)O)cn1 (single isomer, unassigned) [Cpd 21b, 6-methoxy-β-[2-[1-[1-oxo-3-(5,6,7,8-tetrahydro-1,8-naphthyridin-2-yl)propyl]-4-piperidinyl]ethyl]-3-pyridinepropanoic acid] | – | – | –
0.0066 ± 0.0018 µM | 0.0287 ± 0.0133 µM | > 50 µM | O=C(O)CC(CC1CCN(C(=O)CCc2ccc3c(n2)NCCC3)CC1)c1cccc(C(F)(F)F)c1 (stereo not drawn) [Cpd 39, 1-[1-oxo-3-(5,6,7,8-tetrahydro-1,8-naphthyridin-2-yl)propyl]-β-[3-(trifluoromethyl)phenyl]-4-piperidinebutanoic acid] | – | – | –
0.0007 ± 0.0003 µM | 0.0189 ± 0.0046 µM | 5 ± 0.74 µM | COc1ccc(C(CC(=O)O)CC2CCN(C(=O)CCc3ccc4c(n3)NCCC4)CC2)cc1F (stereo not drawn) [Cpd 42, β-(3-fluoro-4-methoxyphenyl)-1-[1-oxo-3-(5,6,7,8-tetrahydro-1,8-naphthyridin-2-yl)propyl]-4-piperidinebutanoic acid] | – | – | –
0.0156 ± 0.0044 µM | 0.676 µM | 0.19 ± 0.04 µM | O=C(O)CC(CCC1CCN(C(=O)c2cccc(NC3=NCCCC3)c2)CC1)c1cnc2ccccc2c1 (stereo not drawn) [Cpd 50, β-[2-[1-[3-[(3,4,5,6-tetrahydro-2-pyridinyl)amino]benzoyl]-4-piperidinyl]ethyl]-3-quinolinepropanoic acid] | – | – | –
0.0022 ± 0.0009 µM | 0.002 ± 0.0006 µM | 5.44 ± 1.1 µM | O=C(O)CC(CC1CCN(C(=O)CCc2ccc3c(n2)NCCC3)CC1)c1cncc2ccccc12 (stereo not drawn) [Cpd 44, β-[[1-[1-oxo-3-(5,6,7,8-tetrahydro-1,8-naphthyridin-2-yl)propyl]-4-piperidinyl]methyl]-4-isoquinolinepropanoic acid] | – | – | –

SMILES | IC50 (Human αvβ3; read-out: αvβ3IC50) | IC50 (human purified αVβ5; read-out: αvβ5 IC50) | IC50 (GP IIb/IIIa; read-out: αIIbβ3 IC50) | IC50 (Human αvβ3; αvβ3IC50 (uM)) | IC50 (human purified αVβ5; αvβ5 IC50 (uM)) | IC50 (GP IIb/IIIa; αIIbβ3 IC50 (uM))
O=C(O)CC(CC1CCN(C(=O)CCc2ccc3c(n2)NCCC3)CC1)C1CNc2ccccc2C1 (single isomer, unassigned) [Cpd 19-1, 1,2,3,4-tetrahydro-β-[[1-[1-oxo-3-(5,6,7,8-tetrahydro-1,8-naphthyridin-2-yl)propyl]-4-piperidinyl]methyl]-3-quinolinepropanoic acid] | 0.0367 µM | 1.12 µM | > 50 µM | – | – | –
O=C(O)CC(CC1CCN(C(=O)CCc2ccc3c(n2)NCCC3)CC1)c1cnc2ccccc2c1 (stereo not drawn) [Cpd 32, β-[[1-[1-oxo-3-(5,6,7,8-tetrahydro-1,8-naphthyridin-2-yl)propyl]-4-piperidinyl]methyl]-3-quinolinepropanoic acid] | – | – | 1.05 ± 0.56 µM | 0.0008 ± 0.0002 µM | 0.0022 ± 0.0007 µM | –
